Reference: PMC11876601 (Molecular Systems Biology, 2025)
Values joined by “and” are separate entries in the source; they are usually repeats but may differ in a detail not shown here. Identical values can stand only once. Like-named read-outs stand apart in the source and are kept apart here.

Key:
Suit2-07 cells = assay: Cell proliferation assay, GEM + ATR inhibitor (Incucyte confluence, 72 h); format: cell-based, human; conditions: Suit2-07; for EC50: Homo sapiens, 72 h; for Response: R1; for Curve bottom / Curve top: plateau of fitted curve, ratio drug/vehicle confluence;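 for all read-outs here: Suit2-07 cells grown in 96-well plates at 37 °C, 5% CO2, raw 72 h confluence taken without normalizing to starting confluence, each experiment done in triplicate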
Method: (§1) Cells were seeded at 5000 cells/well into 96-well flat bottom plates (Eppendorf) and allowed to attach overnight. […] Cells were incubated for 72 h at 37 °C and 5% CO2. Cell confluence readouts at 72 h were either normalized to their initial confluence using the Incucyte software (AsPC-1) or used without prior normalization (all others). […] Each experiment was performed in triplicates, the data was plotted as mean ± standard deviation (s.d.).

AsPC-1 cells = assay: Cell proliferation assay, chemodrug + ATR inhibitor (Incucyte confluence, 72 h); conditions: AsPC1; for Curve bottom / Curve slope / Curve top: fitted dose-response curve; for Curve bottom / Curve top: relative response;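 for all read-outs here: underlying read-out for every value is AsPC-1 confluence after 72 h incubation at 37 °C and 5% CO2, divided by that well's starting confluence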
Method: as §1

[1] = experiment ATRi (ATR inhibitor alone)

Compound `CNCc1ccc(-c2cc(-c3nc(-c4ccc(S(=O)(=O)C(C)C)cc4)cnc3N)on2)cc1` [Berzosertib] has an EC50 (Suit2-07 cells; experiment ATRi (ATR inhibitor alone), -log10 of EC50 [M], read-out: pEC50 (converted)) of 8.32e-07 M, an EC50 (Suit2-07 cells; experiment ATRi (ATR inhibitor alone), mean (one replicate), read-out: EC50 mean) of 8.26e-07 M and an EC50 (Suit2-07 cells; experiment ATRi (ATR inhibitor alone), replicate R1, read-out: EC50) of 8.26e-07 M. It also gave a Response (Suit2-07 cells; GEM+ATRi_dose1, GEM 0 nM + ATRi 10 nM, in % (unit assumed)) of 98.77, a Response (Suit2-07 cells; GEM+ATRi_dose1, GEM 1 nM + ATRi 10 nM, in % (unit assumed)) of 98.71 and a Response (Suit2-07 cells; GEM+ATRi_dose1, GEM 3 nM + ATRi 10 nM, in % (unit assumed)) of 96.04. It also gave a Response (Suit2-07 cells; GEM+ATRi_dose1, GEM 10 nM + ATRi 10 nM, in % (unit assumed)) of 36.30, a Response (Suit2-07 cells; GEM+ATRi_dose1, GEM 30 nM + ATRi 10 nM, in % (unit assumed)) of 15.43 and a Response (Suit2-07 cells; GEM+ATRi_dose1, GEM 100 nM + ATRi 10 nM, in % (unit assumed)) of 14.13. For the same compound, the Response (Suit2-07 cells; GEM+ATRi_dose1, GEM 300 nM + ATRi 10 nM, in % (unit assumed)) was 12.00, the Response (Suit2-07 cells; GEM+ATRi_dose1, GEM 1000 nM + ATRi 10 nM, in % (unit assumed)) was 12.45 and the Response (Suit2-07 cells; GEM+ATRi_dose1, GEM 3000 nM + ATRi 10 nM, in % (unit assumed)) was 11.51. For the same compound, the Response (Suit2-07 cells; GEM+ATRi_dose2, GEM 0 nM + ATRi 3 nM, in % (unit assumed)) was 99.37, the Response (Suit2-07 cells; GEM+ATRi_dose2, GEM 1 nM + ATRi 3 nM, in % (unit assumed)) was 98.07 and the Response (Suit2-07 cells; GEM+ATRi_dose2, GEM 3 nM + ATRi 3 nM, in % (unit assumed)) was 44.64. The Response (Suit2-07 cells; GEM+ATRi_dose2, GEM 10 nM + ATRi 3 nM, in % (unit assumed)) was 20.67, the Response (Suit2-07 cells; GEM+ATRi_dose2, GEM 30 nM + ATRi 3 nM, in % (unit assumed)) was 15.78 and the Response (Suit2-07 cells; GEM+ATRi_dose2, GEM 100 nM + ATRi 3 nM, in % (unit assumed)) was 12.95. It also gave a Response (Suit2-07 cells; GEM+ATRi_dose2, GEM 300 nM + ATRi 3 nM, in % (unit assumed)) of 13.27, a Response (Suit2-07 cells; GEM+ATRi_dose2, GEM 1000 nM + ATRi 3 nM, in % (unit assumed)) of 13.27 and a Response (Suit2-07 cells; GEM+ATRi_dose2, GEM 3000 nM + ATRi 3 nM, in % (unit assumed)) of 11.05. For the same compound, the Response (Suit2-07 cells; GEM+ATRi_dose3, GEM 0 nM + ATRi 30 nM, in % (unit assumed)) was 92.60, the Response (Suit2-07 cells; GEM+ATRi_dose3, GEM 1 nM + ATRi 30 nM, in % (unit assumed)) was 79.33 and the Response (Suit2-07 cells; GEM+ATRi_dose3, GEM 3 nM + ATRi 30 nM, in % (unit assumed)) was 33.65. It also gave a Response (Suit2-07 cells; GEM+ATRi_dose3, GEM 10 nM + ATRi 30 nM, in % (unit assumed)) of 15.80, a Response (Suit2-07 cells; GEM+ATRi_dose3, GEM 30 nM + ATRi 30 nM) of 15.08 and a Response (Suit2-07 cells; GEM+ATRi_dose3, GEM 100 nM + ATRi 30 nM, in % (unit assumed)) of 13.63. The Response (Suit2-07 cells; GEM+ATRi_dose3, GEM 300 nM + ATRi 30 nM, in % (unit assumed)) was 12.25, the Response (Suit2-07 cells; GEM+ATRi_dose3, GEM 1000 nM + ATRi 30 nM, in % (unit assumed)) was 9.74 and the Response (Suit2-07 cells; GEM+ATRi_dose3, GEM 3000 nM + ATRi 30 nM, in % (unit assumed)) was 10.10. It also gave a Curve bottom (Suit2-07 cells; [1]) of 1.01, a Curve top (Suit2-07 cells; [1]) of 0.09 and a Response (Suit2-07 cells; experiment ATRi, ATRi 3 nM, GEM 0 nM, in % (unit assumed)) of 98.72. For the same compound, the Response (Suit2-07 cells; experiment ATRi, ATRi 10 nM, GEM 0 nM, in % (unit assumed)) was 98.54, the Response (Suit2-07 cells; experiment ATRi, ATRi 30 nM, GEM 0 nM, in % (unit assumed)) was 98.42 and the Response (Suit2-07 cells; experiment ATRi, ATRi 100 nM, GEM 0 nM, in % (unit assumed)) was 98.94. For the same compound, the Response (Suit2-07 cells; experiment ATRi, ATRi 300 nM, GEM 0 nM, in % (unit assumed)) was 89.08, the Response (Suit2-07 cells; experiment ATRi, ATRi 1000 nM, GEM 0 nM, in % (unit assumed)) was 45.00 and the Response (Suit2-07 cells; experiment ATRi, ATRi 3000 nM, GEM 0 nM, in % (unit assumed)) was 16.95. For the same compound, the Response (Suit2-07 cells; experiment ATRi, ATRi 10000 nM, GEM 0 nM, in % (unit assumed)) was 8.62, the Curve bottom (Suit2-07 cells; experiment GEM+ATRi_dose1) was 1.01 and the Curve top (Suit2-07 cells; experiment GEM+ATRi_dose1) was 0.13. For the same compound, the Curve bottom (Suit2-07 cells; experiment GEM+ATRi_dose2) was 1.03, the Curve top (Suit2-07 cells; experiment GEM+ATRi_dose2) was 0.15 and the Curve bottom (Suit2-07 cells; experiment GEM+ATRi_dose3) was 0.95. The Curve top (Suit2-07 cells; experiment GEM+ATRi_dose3) was 0.13, the Curve bottom (AsPC-1 cells; Experiment ATRi (ATR inhibitor alone)) was 1.08 and 1.02 and 1.03 and the Curve slope (AsPC-1 cells; Experiment GEM+ATRi_dose1) was 1.49 and 1.39 and 2.10. For the same compound, the Curve bottom (AsPC-1 cells; Experiment GEM+ATRi_dose1) was 1.02 and 0.99 and 0.96, the Curve top (AsPC-1 cells; Experiment GEM+ATRi_dose1) was 0.52 and 0.41 and 0.43 and the Curve bottom (AsPC-1 cells; Experiment GEM+ATRi_dose2) was 1.02 and 0.89 and 0.87. For the same compound, the Curve top (AsPC-1 cells; Experiment GEM+ATRi_dose2) was 0.47 and 0.41, the Curve slope (AsPC-1 cells; Experiment GEM+ATRi_dose3) was 1.48 and 2.60 and 1.95 and the Curve bottom (AsPC-1 cells; Experiment GEM+ATRi_dose3) was 1.02 and 0.71 and 0.76. The Curve top (AsPC-1 cells; Experiment GEM+ATRi_dose3) was 0.44 and 0.38 and 0.37, the Response (AsPC-1 cells; GEM 100 nM + ATRi 30 nM) was 1.96 and the Response (AsPC-1 cells; GEM 300 nM + ATRi 30 nM) was 1.76.
